The values below come from US9808434B2, “Compound for treating cancer and diabetes” (CITY OF HOPE, priority 2011, dated 2017).

In one assay the test system is PBT018. The assay is described as follows: Glioma ATP viability assay, PBT018. The class given is cell-based. As to conditions: Table 1; 72 hours. How it is done:
Cells of each cell line (U251, U87, PBT-017, PBT018, PBT003 and PBT028) were treated with various concentrations (0˜100 μM) of COH-SR4 for 72 hours. Cell viabilities were determined by ATP viability assays. Data were represented as a ratio to vehicle (DMSO) control, and plotted as mean±SEM (n=12) obtained from 2˜3 experiments (FIG. 34A).

Another assay concerns A2058 human melanoma. Type of assay: in vivo. How it is done:
For melanoma studies, C57B mice (for syngeneic B16-F0 mouse melanoma model) and Hsd: Athymic nude nu/nu mice (for A2058 human melanoma mouse xenografts model), were obtained from Harlan, Indianapolis, Ind. All animal experiments were carried out in accordance with a protocol approved by the Institutional Animal Care and Use Committee (IACUC). […] All animals were injected with 2×10^6 melanoma cells suspensions in 100 μL of PBS, subcutaneously into one flank of each mouse. Treatment was started 10 days after the implantation to see palpable tumor growth. […] Control groups were treated with 200 μL corn oil by oral gavage alternate days. Animals were examined daily for signs of tumor growth. Tumors were measured in two dimensions using calipers. Photographs of animals were taken at day 1, day 10, day 14, day 18, day 20, day 30, and day 51 after subcutaneous injection, are shown for all groups. Photographs of tumors were also taken at day 20 (for syngeneic model), and at day 51 (for xenograft model).
C57B mice (for syngeneic B16-F0 mouse melanoma model) and Hsd: Athymic nude nu/nu mice (for A2058 human melanoma mouse xenografts model), were used for testing the impact of oral administration of COH-SR4 on melanoma progression in vivo models. […] All animals were injected with 2×10^6 melanoma cells suspensions in 100 μL of PBS, subcutaneously into one flank of each mouse. Treatment was started 10 days after the implantation of melanoma cells. […] Control groups were treated with 200 μL corn oil by oral gavage alternate day. Animals were examined daily for signs of tumor growth and body weights were recorded. […] Animals were examined daily for signs of tumor growth. Tumors were measured in two dimensions using calipers. […] Weights and photographs of tumors were also taken at day 20 (for syngeneic model), and at day 51 (for xenograft model) (FIG. 70B). […] Tumors were measured in two dimensions using calipers and time-course analysis of tumor regression was performed during the study. […]

The test system of a further assay is GST. The assay is described as follows: GST activity towards CDNB in lung cancer cell supernatants. Particulars: H1417, H1618, H520, H358 supernatants; 1 mM GSH and CDNB. The class given is biochemical, human. How it is done:
In the context of the elevation of GSTs in lung cancer, the impact of COH-SR4 on the catalytic activity of GSTs towards 1-chloro 2,4-dinitro benzene (CDNB), a model substrate used for GST activity was analyzed. GST activity towards 1-chloro 2,4-dinitro benzene (CDNB) and its inhibition by COH-SR4 was performed in 28000×g crude supernatant prepared from H1417, H1618, H520 and H358 cells. The inhibitory effect of COH-SR4 on GST was studied at a fixed concentration of GSH and CDNB (1 mM each) and varying concentrations of inhibitor. The enzymes were pre-incubated with the inhibitor for 5 min at 37° C. prior to the addition of the substrates. The experiment was repeated three times and similar results were obtained. […] Human liver purified GST was used as a control (FIG. 79B, inset). GSTs are a class of phase II detoxifying enzymes, which regulate detoxification of administered chemotherapy drugs for further efflux out of cells by transport proteins. The GST inhibition leads to accumulation of toxic end-products of lipid peroxidation due to decreased efflux of GS-HNE which also reinforces the GST inhibition by feedback inhibition. The over-expression of GSTs is a common phenomenon associated with malignant progression of many cancers including lung cancer, melanomas skin and prostate cancers. […]

Assay [1] deals with mouse C2C12, HepG2, and 3T3-L1 cells. Put plainly: Oxygen consumption rate in myotubes, liver cells, adipocytes. Type of assay: cell-based. How it is done:
Oxygen consumption rate (OCR), a measure of OxPhos, and extracellular acidification rate (ECAR), a measure of lactate production by glycolysis, were measured using a Seahorse Xf^e96 Flux Analyzers (Seahorse Biosciences, North Billerica, Mass.). Cells were seeded in DMEM media in Seahorse 96-well tissue culture plates at a density of 5×10^3 cells/well and allowed to adhere for 24 h. Prior to the assay, the media was changed to unbuffered DMEM containing 25 mM glucose, 1 mM pyruvate and 1 mM glutamine, with 0.2% fatty acid/endotoxin-free BSA (w/v) (pH 7.4) and the cells were equilibrated for 30 min at 37° C. Test compounds were injected during the assay and OCR and ECAR were measured using 2-3 min measurement periods. Similar sets of experiments were performed in the presence of the mitochondria recoupler agent 6-KCH or the mitochondrial permeability transition (MPT) pore blocker CSA, where each compound was injected into the assay media prior to COH-SR4 or FCCP injection. In separate experiments with A2058 and A2058 p° cells, a modified Mitostress test was performed accordingly per Seahorse protocols (89, 90). […] OCR was measured throughout the different injections of the stressors and test compounds (indicated by arrows in the figures). […]

Molecules are shown by their SMILES.

The IC50 is the concentration that inhibits the measured activity by half.

Compound `O=C(Nc1cc(Cl)cc(Cl)c1)Nc1cc(Cl)cc(Cl)c1` [COH-SR4, 1,3-bis(3,5-dichlorophenyl) urea] had an IC50 in the assay on PBT018 of 6.5 µM. Further, the “tumor regression and toxicity at higher dosage” value with A2058 human melanoma (20 mg/kg b.w.) was “no further improvement in tumor regression and no toxicity was observed”. Further, in the assay on A2058 human melanoma (day 51, control 1.91±0.3 g), the tumor weight stood at 0.7 ± 0.1 g. Further, in the assay on A2058 human melanoma (vehicle censored by day 51±3), the “survival (still alive)” value is not below 88 days. For the same compound, the “total GST activity towards CDNB” value with GST is recorded as “inhibited the total GST activity to a significant extent”. The OCR result in assay [1] was “dose- and time dependently increased the OCR”.
